tested on: N. fowleri strain Nf69 (ATCC 30215) trophozoites; experiment: Determination of EC50 values against Naegleria fowleri (growth inhibition, CellTiter Glo, 48 h); format: cell-based; conditions: ATCC30215, N. fowleri Nf69 trophozoites, 48 h culture, 37° C., CellTiter Glo luminescence, read-out: EC50 uM against N. fowleri
Experimental: N. fowleri strain Nf69 (ATCC 30215) trophozoites were cultured axenically. Amoeba were seeded at […] in 100 μL of the indicated medium in white TC-treated 96-well plates (Thermo Scientific Nunc Microwell 136101). Cells were seeded into Nelson's Complete Media (NCM, 0.17% liver infusion broth (BD Difco, Franklin Lakes, NJ), 0.17% glucose, 0.012% sodium chloride, 0.0136% potassium phosphate monobasic, 0.0142% sodium phosphate dibasic, 0.0004% calcium chloride, 0.0002% magnesium sulfate, 10% heat-inactivated fetal bovine serum (FBS), 1% penicillin-streptomycin) at 37° C. in 96-well tissue culture plates. Vehicle or compound at concentrations initially ranging from 20 to 0.375 μM were added to cells, followed by culture for 48 h (37° C., 5% CO2). Plates were equilibrated to rt for 15 min and CellTiter Glo reagent was added followed by orbital shaking for 2 min. After an additional incubation (rt, 10 min), luminescence was scored on a BioTek Synergy H1 microplate reader. Luminescence values were used to calculate percent cell growth inhibition (based on controls) for each concentration of compound tested. Averages of triplicates were calculated and fit to dose-response curves for the determination of EC50 values, using Prism 9.0 (GraphPad Software, San Diego, CA). […] Other controls included media alone, cells and media, and vehicle and media. For very potent compounds, concentration of reagent in the dose-response assays were reduced to provide an appropriate range for EC50 value resolution.
Compounds of the present technology were tested for growth inhibition of N. fowleri per General Procedure 13, above.

For `CN1CCN(C)[C@H]2c3nc4ccccc4c(=O)n3CC[C@H]21` (racemic) [cis-5y, (±)-(4aR,13bR)-1,4-dimethyl-1,2,3,4,4a,5,6,13b-octahydro-8H-pyrazino[2′,3′:3,4]pyrido[2,1-b]quinazolin-8-one], which EC50 is on record?
The EC50 was greater than 10 µM.

How did the EC50 turn out when `CCN1CCC[C@H]2c3nc4ccccc4c(=O)n3CC[C@H]21` (racemic) [cis-5z, (±)-(4aR,13bR)-4-ethyl-1,2,3,4,4a,5,6,13b-octahydro-8H-[1,6]naphthyridino[5,6-b]quinazolin-8-one] was run?
Its EC50 is greater than 10 µM.

`Cc1ccc(-c2ccc3nc4n(c(=O)c3c2)CC[C@@H]2[C@H]4CCCN2C)cn1` (racemic) [cis-9a] was tested. Which EC50 did it give?
The EC50 was greater than 10 µM.

With `CN1CCC[C@H]2c3nc4cc(-c5ccccc5)c(Cl)cc4c(=O)n3CC[C@H]21` (racemic) [cis-9b, (±)-(4aR,13bR)-10-chloro-4-methyl-11-phenyl-1,2,3,4,4a,5,6,13b-octahydro-8H-[1,6]naphthyridino[5,6-b]quinazolin-8-one] as the compound, how does the EC50 read?
Its EC50 is 1 to 10 µM.

For `COc1ccc2c(=O)n3c(nc2c1)[C@@H]1CCCN(C)[C@@H]1CC3` (racemic) [cis-50, (±)-(4aR,13bR)-11-methoxy-4-methyl-1,2,3,4,4a,5,6,13b-octahydro-8H-[1,6]naphthyridino[5,6-b]quinazolin-8-one], which EC50 is on record?
The EC50 was 1 to 10 µM.

`CN1CCC[C@@H]2c3nc4ccccc4c(=O)n3CC[C@H]21` (racemic) [trans-5a, (±)-(4aR,13bS)-4-methyl-1,2,3,4,4a,5,6,13b-octahydro-8H-[1,6]naphthyridino[5,6-b]quinazolin-8-one] was tested. Which EC50 did it give?
Its EC50 is greater than 10 µM.

For `O=c1c2ccccc2nc2n1CC[C@@H]1[C@@H]2CCCN1Cc1ccccc1` (racemic) [trans-5aa, (±)-(4aR,13bS)-4-benzyl-1,2,3,4,4a,5,6,13b-octahydro-8H-[1,6]naphthyridino[5,6-b]quinazolin-8-one], which EC50 is on record?
The EC50 was greater than 10 µM.

With `Cc1cccc2nc3n(c(=O)c12)CC[C@@H]1[C@@H]3CCCN1C` (racemic) [trans-5b, (±)-(4aR,13bS)-4,9-dimethyl-1,2,3,4,4a,5,6,13b-octahydro-8H-[1,6]naphthyridino[5,6-b]quinazolin-8-one] as the compound, how does the EC50 read?
The EC50 was greater than 10 µM.

With `CN1CCC[C@@H]2c3nc4cccc(Cl)c4c(=O)n3CC[C@H]21` (racemic) [trans-5c, (±)-(4aR,13bS)-9-chloro-4-methyl-1,2,3,4,4a,5,6,13b-octahydro-8H-[1,6]naphthyridino[5,6-b]quinazolin-8-one] as the compound, how does the EC50 read?
The EC50 was greater than 10 µM.

With `CN1CCC[C@@H]2c3nc4ccc(Cl)cc4c(=O)n3CC[C@H]21` (racemic) [trans-5d, (±)-(4aR,13bS)-10-chloro-4-methyl-1,2,3,4,4a,5,6,13b-octahydro-8H-[1,6]naphthyridino[5,6-b]quinazolin-8-one] as the compound, how does the EC50 read?
Its EC50 is 0.1 to 1 µM.

With `CN1CCC[C@@H]2c3nc4ccc(Br)cc4c(=O)n3CC[C@H]21` (racemic) [trans-5e, (±)-(4aR,13bS)-10-bromo-4-methyl-1,2,3,4,4a,5,6,13b-octahydro-8H-[1,6]naphthyridino[5,6-b]quinazolin-8-one] as the compound, how does the EC50 read?
Its EC50 is 1 to 10 µM.

For `CN1CCC[C@@H]2c3nc4ccc(F)cc4c(=O)n3CC[C@H]21` (racemic) [trans-5f, (±)-(4aR,13bS)-10-fluoro-4-methyl-1,2,3,4,4a,5,6,13b-octahydro-8H-[1,6]naphthyridino[5,6-b]quinazolin-8-one], which EC50 is on record?
Its EC50 is greater than 10 µM.

With `COc1ccc2nc3n(c(=O)c2c1)CC[C@@H]1[C@@H]3CCCN1C` (racemic) [trans-5g, (±)-(4aR,13bS)-10-methoxy-4-methyl-1,2,3,4,4a,5,6,13b-octahydro-8H-[1,6]naphthyridino[5,6-b]quinazolin-8-one] as the compound, how does the EC50 read?
Its EC50 is 1 to 10 µM.

`COc1cc2nc3n(c(=O)c2cc1Cl)CC[C@@H]1[C@@H]3CCCN1C` (racemic) [trans-5gg, (±)-(4aR,13bS)-10-chloro-11-methoxy-4-methyl-1,2,3,4,4a,5,6,13b-octahydro-8H-[1,6]naphthyridino[5,6-b]quinazolin-8-one] was tested. Which EC50 did it give?
The EC50 was 0.1 to 1 µM.

How did the EC50 turn out when `Cc1ccc2nc3n(c(=O)c2c1)CC[C@@H]1[C@@H]3CCCN1C` (racemic) [trans-5h, (±)-(4aR,13bS)-4,10-dimethyl-1,2,3,4,4a,5,6,13b-octahydro-8H-[1,6]naphthyridino[5,6-b]quinazolin-8-one] was run?
Its EC50 is 1 to 10 µM.

Which EC50 does the source give for `CN1CCC[C@@H]2c3nc4ccc(C#N)cc4c(=O)n3CC[C@H]21` (racemic) [trans-5i, (±)-(4aR,13bS)-4-methyl-8-oxo-2,3,4,4a,5,6,8,13b-octahydro-1H-[1,6]naphthyridino[5,6-b]quinazoline-10-carbonitrile] here?
Its EC50 is 0.1 to 1 µM.

With `CN1CCC[C@@H]2c3nc4ccc(C(F)(F)F)cc4c(=O)n3CC[C@H]21` (racemic) [trans-5j, (±)-(4aR,13bS)-4-methyl-10-(trifluoromethyl)-1,2,3,4,4a,5,6,13b-octahydro-8H-[1,6]naphthyridino[5,6-b]quinazolin-8-one] as the compound, how does the EC50 read?
The EC50 was 1 to 10 µM.

Which EC50 does the source give for `CN1CCC[C@@H]2c3nc4cc(Cl)ccc4c(=O)n3CC[C@H]21` (racemic) [trans-5k, (±)-(4aR,13bS)-11-chloro-4-methyl-1,2,3,4,4a,5,6,13b-octahydro-8H-[1,6]naphthyridino[5,6-b]quinazolin-8-one] here?
The EC50 was 1 to 10 µM.

Which EC50 does the source give for `CN1CCC[C@@H]2c3nc4cc(Br)ccc4c(=O)n3CC[C@H]21` (racemic) [trans-5l, (±)-(4aR,13bS)-11-bromo-4-methyl-1,2,3,4,4a,5,6,13b-octahydro-8H-[1,6]naphthyridino[5,6-b]quinazolin-8-one] here?
The EC50 was 1 to 10 µM.

Which EC50 does the source give for `CN1CCC[C@@H]2c3nc4cc(F)ccc4c(=O)n3CC[C@H]21` (racemic) [trans-5m, (±)-(4aR,13bS)-11-fluoro-4-methyl-1,2,3,4,4a,5,6,13b-octahydro-8H-[1,6]naphthyridino[5,6-b]quinazolin-8-one] here?
Its EC50 is greater than 10 µM.

`CN1CCC[C@@H]2c3nc4cc(C(F)(F)F)ccc4c(=O)n3CC[C@H]21` (racemic) [trans-5n, (±)-(4aR,13bS)-4-methyl-11-(trifluoromethyl)-1,2,3,4,4a,5,6,13b-octahydro-8H-[1,6]naphthyridino[5,6-b]quinazolin-8-one] was tested. Which EC50 did it give?
The EC50 was 0.1 to 1 µM.

`CN1CCC[C@@H]2c3nc4cnccc4c(=O)n3CC[C@H]21` (racemic) [trans-5p, (±)-(4aR,13bS)-4-methyl-1,2,3,4,4a,5,6,13b-octahydro-8H-pyrido[3′,4′:4,5]pyrimido[2,1-f][1,6]naphthyridin-8-one] was tested. Which EC50 did it give?
Its EC50 is greater than 10 µM.

`CN1CCC[C@@H]2c3nc4cc(Cl)c(Cl)cc4c(=O)n3CC[C@H]21` (racemic) [trans-5q, (±)-(4aR,13bS)-10,11-dichloro-4-methyl-1,2,3,4,4a,5,6,13b-octahydro-8H-[1,6]naphthyridino[5,6-b]quinazolin-8-one] was tested. Which EC50 did it give?
Its EC50 is 0.1 to 1 µM.

For `COc1cc2nc3n(c(=O)c2cc1OC)CC[C@@H]1[C@@H]3CCCN1C` (racemic) [trans-5r, (±)-(4aR,13bS)-10,11-dimethoxy-4-methyl-1,2,3,4,4a,5,6,13b-octahydro-8H-[1,6]naphthyridino[5,6-b]quinazolin-8-one], which EC50 is on record?
The EC50 was greater than 10 µM.

Which EC50 does the source give for `CN1CCC[C@@H]2c3nc4cc(Cl)c(C(F)(F)F)cc4c(=O)n3CC[C@H]21` (racemic) [trans-5s, (±)-(4aR,13bS)-11-chloro-4-methyl-10-(trifluoromethyl)-1,2,3,4,4a,5,6,13b-octahydro-8H-[1,6]naphthyridino[5,6-b]quinazolin-8-one] here?
The EC50 was 0.1 to 1 µM.

Which EC50 does the source give for `COc1cc(Cl)cc2c(=O)n3c(nc12)[C@H]1CCCN(C)[C@@H]1CC3` (racemic) [trans-5t, (±)-(4aR,13bS)-10-chloro-12-methoxy-4-methyl-1,2,3,4,4a,5,6,13b-octahydro-8H-[1,6]naphthyridino[5,6-b]quinazolin-8-one] here?
Its EC50 is greater than 10 µM.

How did the EC50 turn out when `COc1cccc2c(=O)n3c(nc12)[C@H]1CCCN(C)[C@@H]1CC3` (racemic) [trans-5u, (±)-(4aR,13bS)-12-methoxy-4-methyl-1,2,3,4,4a,5,6,13b-octahydro-8H-[1,6]naphthyridino[5,6-b]quinazolin-8-one] was run?
Its EC50 is greater than 10 µM.

Which EC50 does the source give for `CN1CCO[C@@H]2c3nc4ccccc4c(=O)n3CC[C@H]21` (racemic) [trans-5v, (±)-(4aR,13bS)-4-methyl-3,4,4a,5,6,13b-hexahydro-[1,4]oxazino[2′,3′:3,4]pyrido[2,1-b]quinazolin-8(2H)-one] here?
The EC50 was greater than 10 µM.

How did the EC50 turn out when `CN1CCO[C@@H]2c3nc4ccc(Cl)cc4c(=O)n3CC[C@H]21` (racemic) [trans-5w, (±)-(4aR,13bS)-10-chloro-4-methyl-3,4,4a,5,6,13b-hexahydro-[1,4]oxazino[2′,3′:3,4]pyrido[2,1-b]quinazolin-8(2H)-one] was run?
The EC50 was greater than 10 µM.

For `CN1CCO[C@@H]2c3nc4ccc(C(F)(F)F)cc4c(=O)n3CC[C@H]21` (racemic) [trans-5x, (±)-(4aR,13bS)-4-methyl-10-(trifluoromethyl)-3,4,4a,5,6,13b-hexahydro-[1,4]oxazino[2′,3′:3,4]pyrido[2,1-b]quinazolin-8(2H)-one], which EC50 is on record?
The EC50 was greater than 10 µM.

With `CCN1CCC[C@@H]2c3nc4ccccc4c(=O)n3CC[C@H]21` (racemic) [trans-5z, (±)-(4aR,13bS)-4-ethyl-1,2,3,4,4a,5,6,13b-octahydro-8H-[1,6]naphthyridino[5,6-b]quinazolin-8-one] as the compound, how does the EC50 read?
Its EC50 is greater than 10 µM.

Source: patent US20250154152A1, “INHIBITORS OF NAEGLERIA FOWLERI” (Wisconsin Alumni Research Foundation, priority 2023, published 2025)
